As usually defined, the IC50 is the concentration that inhibits the measured activity by half. Higher therefore signals weaker potency.

This is an account of results in BindingDB's records for patent US10392346 (Topivert Pharma, 2019).

Test [1] concerns the target Proto-oncogene tyrosine-protein kinase Src (Homo sapiens, UniProt P12931). In words: Enzyme Inhibition. As to the method:
The relevant enzyme (3000 ng/mL or 2000 ng/mL respectively, 2.5 μL) is incubated with the test compound (either 1 μg/mL, 0.1 μg/mL, 0.01 μg/mL, or 0.001 μg/mL, 2.5 μL each) for 2 hr at RT. The FRET peptides (8 μM, 2.5 μL), and appropriate ATP solutions (2.5 μL, 800 μM for c-Src, and 60 μM ATP for Syk) are then added to the enzymes/compound mixtures and the mixture incubated for 1 hr. Development reagent (protease, 5 μL) is added for 1 hr prior to detection in a fluorescence microplate reader (Varioskan Flash, ThermoFisher Scientific).

For test [2], the target named is Glycogen synthase kinase-3 alpha (Homo sapiens, UniProt P49840). In words: Enzyme Inhibition. As to the method: In addition, the concentrations of test compound employed are either 10 μg/mL, 1 μg/mL, 0.1 μg/mL, or 0.01 μg/m: Method 1: The inhibitory activities of test compounds against the p38 MAPKα isoform (MAPK14: Invitrogen) are evaluated indirectly by determining the level of activation/phosphorylation of the down-stream molecule, MAPKAP-K2. The p38 MAPKα protein (80 ng/mL, 2.5 μL) is mixed with the test compound (2.5 μL of either 4 μg/mL, 0.4 μg/mL, 0.04 μg/mL or 0.004 μg/mL) for 2 hr at RT. […] The mixture is incubated for 1 hr at RT. Development reagent (protease, 5 μL) is added for 1 hr prior to detection in a fluorescence microplate reader (Varioskan Flash, ThermoFisher Scientific).
Glycogen synthase kinase-3 alpha, sequence (P49840 whole entry, canonical isoform): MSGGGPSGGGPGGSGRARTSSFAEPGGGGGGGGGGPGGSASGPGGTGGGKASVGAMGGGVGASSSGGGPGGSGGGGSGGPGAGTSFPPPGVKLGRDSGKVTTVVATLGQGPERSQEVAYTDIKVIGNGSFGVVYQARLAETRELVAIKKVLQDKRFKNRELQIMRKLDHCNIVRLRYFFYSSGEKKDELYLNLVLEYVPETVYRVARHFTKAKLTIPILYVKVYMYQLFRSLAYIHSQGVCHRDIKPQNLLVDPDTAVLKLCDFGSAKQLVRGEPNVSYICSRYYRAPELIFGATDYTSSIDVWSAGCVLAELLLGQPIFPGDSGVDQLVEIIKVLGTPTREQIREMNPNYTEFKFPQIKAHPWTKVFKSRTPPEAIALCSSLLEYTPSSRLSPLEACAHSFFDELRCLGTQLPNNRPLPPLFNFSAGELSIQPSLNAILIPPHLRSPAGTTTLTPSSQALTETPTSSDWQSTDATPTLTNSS

Proto-oncogene tyrosine-protein kinase Src, sequence (P12931 2-536 limits assumed): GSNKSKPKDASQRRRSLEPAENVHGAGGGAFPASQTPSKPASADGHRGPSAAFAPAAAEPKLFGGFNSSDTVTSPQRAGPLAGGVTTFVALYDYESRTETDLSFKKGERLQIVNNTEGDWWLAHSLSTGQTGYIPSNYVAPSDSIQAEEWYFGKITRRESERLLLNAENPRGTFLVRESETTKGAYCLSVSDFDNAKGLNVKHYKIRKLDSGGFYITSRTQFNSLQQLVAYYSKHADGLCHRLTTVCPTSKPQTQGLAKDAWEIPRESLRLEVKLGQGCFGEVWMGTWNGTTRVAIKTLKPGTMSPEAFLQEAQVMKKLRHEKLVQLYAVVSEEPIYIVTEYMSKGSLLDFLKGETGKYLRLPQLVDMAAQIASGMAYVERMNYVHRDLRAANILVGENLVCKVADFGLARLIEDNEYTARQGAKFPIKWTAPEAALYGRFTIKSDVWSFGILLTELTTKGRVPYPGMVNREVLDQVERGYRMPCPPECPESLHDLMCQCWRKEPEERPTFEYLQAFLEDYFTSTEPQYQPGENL

On to `COc1cc(Nc2cc(Oc3ccc(NC(=O)Nc4cc(C(C)(C)C)cc(N[S+](C)[O-])c4OC)c4ccccc34)ccn2)ccc1C(=O)NCCN1CCN(C)CC1` (stereo unspecified) [US10392346, Example 17(a)], for which the IC50 was 16 nM in test [1] and 4000 nM in test [2].

For the compound `COc1cc(Nc2cc(Oc3ccc(NC(=O)Nc4cc(C(C)(C)C)cc(NS(C)(=O)=O)c4OC)c4ccccc34)ccn2)ccc1C(=O)N(C)CCCN1CC[S+]([O-])CC1` [US10392346, Example 17(ag)], the results for the IC50 in test [1] and in test [2] were 17 nM and 2740 nM, respectively.

With `COc1cc(Nc2cc(Oc3ccc(NC(=O)Nc4cc(C(C)(C)C)cc(NS(C)(=O)=O)c4OC)c4ccccc34)ccn2)ccc1C(=O)N(C)CCCN1CCS(=O)(=O)CC1` [US10392346, Example 17(ah)], the IC50 was 20 nM in test [1] and 9190 nM in test [2].
